Data: patent publication US20080293699A1, “Inhibitors of thapsigargin-induced cell death” (priority 2007, published 2008)

How the values were obtained:
[1] = test system: PPC1, human prostate cancer; assay: Thapsigargin-induced death of PPC1 cells, ATP content assay; assay type: cell-based
Experimental: (§1) In addition to CSM14.1 cells, when tested at 25 μM, Compound 5962123 protected by >50% against thapsigargin-induced death of several tumor cell lines (HeLa human cervical cancer, SW1 melanoma cell, PPC1, human prostate cancer), mouse neural stem cell C17.2 (both differentiated [neuronal phenotype] and non-differentiated [stem cell phenotype]) as determined by ATP content assay, and primary rat cortical neurons as determined by microscopy assay measuring the percentage of NeuN-immunopositive cells with either normal or apoptotic nuclear morphology (Hoechst dye staining).
(§2) For PC12, cells were stimulated with 20 ng/ml NGF for five days; for C17.2, cells were stimulated with serum reduction, and 1% N2 incubation for three days; for CSM14.1, cells were cultured at 39° C. for 5-7 days.

[2] = test system: PC12 rat pheochromocytoma cells; assay: Thapsigargin-induced death of PC12 cells (undifferentiated and differentiated), ATP content assay; assay type: cell-based; design: key to Cytoprotective activity, PC12 (Result): +indicates >50% rescue of cell viability relative to untreated cells not exposed to thapsigargin at compound concentration of ≦25 μM; E indicates compound enhanced thapsigargin-induced death
Experimental: as §1, §2

[3] = test system: primary rat cortical neurons; assay: Thapsigargin-induced death of primary cortical neurons, microscopy assay (NeuN, Hoechst); assay type: cell-based
Experimental: as §1
Description of secondary screens. The secondary screens used to characterize compound 5962123 (many of which were used to characterize all 11 benzodiazepines) are outlined above. Thirty-one secondary screens have been used to date to characterize compound 5962123. […] Finally, compound 2878746 inhibits thapsigargin-induced cell death of rat primary cortical neurons (identified by staining with NeuN), as determined by counting apoptotic […] (NeuN)-positive cells stained with the DNA-binding fluorochrome Hoechst dye to identify cells with condensed nuclear morphology indicative of apoptosis and evidence of neurite retraction.

phospho-eIF2α = assay: Immunoblotting of eIF2α phosphorylation in thapsigargin-treated CSM14.1 cells; assay type: cell-based, rat; conditions: thapsigargin-stimulated CSM14.1, listed as CID-2878746
Excerpt: After confirming the pathway selectivity of compounds, additional downstream assays can be performed to map the specific signal transduction pathway inhibited by the compounds. In this regard, various antibody reagents are commercially available for assessing the status of the three major pathways known to be activated by ER stress: (1) PERK, (2) Ire1, and (3) ATF6 (Xu et al., J. Clinical Invest., 115:2656-2664, 2005). Immunoblotting experiments can be performed to assess the expression or phosphorylation (using phospho-specific antibodies) of marker proteins in these pathways. […] Cell lysates were prepared and analyzed by SDS-PAGE/immunoblotting using antibodies specific for phospho-c-Jun, phospho-eIF2α, phospho-p38 MAPK, and tubulin (a loading control). […] After two hrs, cell lysates were prepared, normalized for protein content, and either analyzed by SDS-PAGE/immunoblotting using anti-p38-MAPK pan-reactive antibody or phospho-specific antibody with ECL-based detection, followed by densitometry analysis of x-ray films, normalizing phosphor-p38 MAPK relative to total p38 MAPK, or analyzed using a meso-scale instrument from MSD and a procedure in which total p38 MAPK is captured on plates, and the relative amounts of phosphorylated protein were determined using phospho-specific antibody (MSD catalog #K15112D1). […]

Compound: CCN(CC)c1ccc(C2Nc3ccccc3NC3=C2C(=O)CC(c2ccccc2)C3)cc1 (stereo not drawn) [Compound 5962123, 6-(4-diethylaminophenyl)-9-phenyl-5,6,8,9,10,11-hexahydrobenzo[c][1,5]benzodiazepin-7-one]
- Protection against thapsigargin-induced death, PPC1 ([1]; 25 μM, ATP content assay): > 50%
- Cytoprotective activity in thapsigargin-treated PPC-1 ([1]; ATP content assay): demonstrated
- Cytoprotective activity, PPC1 (Result) ([1]; thapsigargin 15 μM, ATP content, compound ≦25 μM): + (+indicates >50% rescue of cell viability relative to untreated cells not exposed to thapsigargin at compound concentration of ≦25 μM)
- Protection of PC12 cells from thapsigargin-induced cell death ([2]; 25 μM, undifferentiated or differentiated as stated, ATP content assay): does not protect
- Effect on thapsigargin-treated undifferentiated PC12 cells ([2]; undifferentiated PC12): paradoxical cell death-promoting activity
- Cytoprotective activity, PC12 (Result) ([2]; undifferentiated, thapsigargin 15 μM, ATP content, compound ≦25 μM): E
- Protection against thapsigargin-induced death, primary rat cortical neurons ([3]; 25 μM, microscopy, NeuN-immunopositive cells, Hoechst nuclear morphology): > 50%
- Inhibition of thapsigargin-induced cell death of rat primary cortical neurons ([3]; counting apoptotic NeuN-positive cells, Hoechst dye): inhibits
- Phosphorylation of eIF2alpha (Ser 51) (phospho-eIF2α): not inhibited
